According to ChEMBL document CHEMBL5375959 (J Med Chem, 2023):
Values belong to the compound of their own block, whether it stands above or below them. Activity calls are given as the source filed them. No cut-off for these calls is given here.

Columns and labels:
[1] = molecular target: Sarcoplasmic/endoplasmic reticulum calcium ATPase 2 (Mus musculus) (UniProt O55143); experiment: Activation of SERCA2a in mouse HL-1 cells assessed as increase in caffeine-induced calcium release at 50 uM incubated for 2 hrs by FLIPR Calcium 6 dye based caffeine assay; type: cell-based
Sarcoplasmic/endoplasmic reticulum calcium ATPase 2 (Mus musculus), sequence (O55143 whole entry): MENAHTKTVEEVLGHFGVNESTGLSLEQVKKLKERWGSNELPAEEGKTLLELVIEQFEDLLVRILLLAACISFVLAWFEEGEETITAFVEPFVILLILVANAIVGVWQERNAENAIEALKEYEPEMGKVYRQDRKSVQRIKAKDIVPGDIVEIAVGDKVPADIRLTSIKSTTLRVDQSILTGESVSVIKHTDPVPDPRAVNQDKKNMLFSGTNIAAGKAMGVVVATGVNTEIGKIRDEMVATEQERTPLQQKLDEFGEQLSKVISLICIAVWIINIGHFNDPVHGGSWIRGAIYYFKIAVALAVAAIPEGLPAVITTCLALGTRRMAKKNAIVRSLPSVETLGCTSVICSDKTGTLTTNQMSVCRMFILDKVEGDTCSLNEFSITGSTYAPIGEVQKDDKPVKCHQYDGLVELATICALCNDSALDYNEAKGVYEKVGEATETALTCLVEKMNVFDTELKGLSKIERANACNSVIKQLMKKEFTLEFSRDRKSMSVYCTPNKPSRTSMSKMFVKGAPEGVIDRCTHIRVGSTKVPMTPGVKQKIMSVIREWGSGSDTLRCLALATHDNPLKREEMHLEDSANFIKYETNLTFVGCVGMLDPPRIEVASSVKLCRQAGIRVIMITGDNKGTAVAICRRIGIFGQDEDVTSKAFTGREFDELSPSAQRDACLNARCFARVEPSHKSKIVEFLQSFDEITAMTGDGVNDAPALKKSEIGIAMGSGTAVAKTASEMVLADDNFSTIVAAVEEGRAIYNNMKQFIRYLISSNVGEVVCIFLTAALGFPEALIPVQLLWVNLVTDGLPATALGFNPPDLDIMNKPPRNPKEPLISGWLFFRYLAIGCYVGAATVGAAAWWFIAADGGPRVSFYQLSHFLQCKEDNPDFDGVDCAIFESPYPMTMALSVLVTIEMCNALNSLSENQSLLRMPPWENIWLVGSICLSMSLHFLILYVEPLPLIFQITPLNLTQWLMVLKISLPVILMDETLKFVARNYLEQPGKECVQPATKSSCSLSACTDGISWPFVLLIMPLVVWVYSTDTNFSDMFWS

[2] = molecular target: Sarcoplasmic/endoplasmic reticulum calcium ATPase 2 (Mus musculus, UniProt O55143); experiment: (§1) Activation of SERCA2a in mouse HL-1 cells assessed as increase in caffeine-induced calcium release incubated for 2 hrs by FLIPR Calcium 6 dye based caffeine assay; type: cell-based
Sarcoplasmic/endoplasmic reticulum calcium ATPase 2, sequence (O55143 whole entry): as above

[3] = Permeability of the compound measured after 24 hrs by PAMPA; type: ADME; conditions: read-out: permeability
[4] = molecular target: Sarcoplasmic/endoplasmic reticulum calcium ATPase 2 (Mus musculus) (UniProt O55143); experiment: Activation of SERCA2a in mouse HL-1 cells assessed as increase in caffeine-induced calcium release at 3 uM incubated for 2 hrs by FLIPR Calcium 6 dye based caffeine assay relative to control; type: cell-based; conditions: filed as activator
Ryanodine receptor 2 [5] = molecular target: T1, Ryanodine receptor 2 (Homo sapiens, UniProt Q92736); experiment: Modulator activity at wild type RyR2 (unknown origin) expressed in HEK293T co-expressed with R-CEPIA1er assessed as decrease in RyR2-mediated calcium leak in presence of calcium chloride by time-lapse fluorescence analysis; type: cell-based
[6] = molecular target: Sarcoplasmic/endoplasmic reticulum calcium ATPase 2 (Mus musculus) (UniProt O55143); experiment: Activation of SERCA2a in mouse HL-1 cells assessed as increase in caffeine-induced calcium release at 25 uM incubated for 2 hrs by FLIPR Calcium 6 dye based caffeine assay; type: cell-based
[7] = molecular target: Sarcoplasmic/endoplasmic reticulum calcium ATPase 2 (Mus musculus) (UniProt O55143); experiment: Activation of SERCA2a in C57BL/6N mouse sarcoplasmic reticulum assessed as increase in […] measured for 10 mins in presence of ATP by NADH fluorescence-coupled ATPase assay; type: subcellular; conditions: filed as activator
[8] = molecular target: Sarcoplasmic/endoplasmic reticulum calcium ATPase 2 (Mus musculus) (UniProt O55143); experiment: Activation of SERCA2a in mouse HL-1 cells assessed as increase in caffeine-induced calcium release at 10 uM incubated for 2 hrs by FLIPR Calcium 6 dye based caffeine assay relative to control; type: cell-based; conditions: filed as activator
[9] = molecular target: Sarcoplasmic/endoplasmic reticulum calcium ATPase 2 (Homo sapiens) (UniProt P16615); experiment: Activation of SERCA2a in human HEK293T cells endoplasmic reticulum assessed as increase in […] measured for 10 mins in presence of ATP by NADH fluorescence-coupled ATPase assay; type: subcellular
Sarcoplasmic/endoplasmic reticulum calcium ATPase 2 (Homo sapiens), sequence (P16615 whole entry): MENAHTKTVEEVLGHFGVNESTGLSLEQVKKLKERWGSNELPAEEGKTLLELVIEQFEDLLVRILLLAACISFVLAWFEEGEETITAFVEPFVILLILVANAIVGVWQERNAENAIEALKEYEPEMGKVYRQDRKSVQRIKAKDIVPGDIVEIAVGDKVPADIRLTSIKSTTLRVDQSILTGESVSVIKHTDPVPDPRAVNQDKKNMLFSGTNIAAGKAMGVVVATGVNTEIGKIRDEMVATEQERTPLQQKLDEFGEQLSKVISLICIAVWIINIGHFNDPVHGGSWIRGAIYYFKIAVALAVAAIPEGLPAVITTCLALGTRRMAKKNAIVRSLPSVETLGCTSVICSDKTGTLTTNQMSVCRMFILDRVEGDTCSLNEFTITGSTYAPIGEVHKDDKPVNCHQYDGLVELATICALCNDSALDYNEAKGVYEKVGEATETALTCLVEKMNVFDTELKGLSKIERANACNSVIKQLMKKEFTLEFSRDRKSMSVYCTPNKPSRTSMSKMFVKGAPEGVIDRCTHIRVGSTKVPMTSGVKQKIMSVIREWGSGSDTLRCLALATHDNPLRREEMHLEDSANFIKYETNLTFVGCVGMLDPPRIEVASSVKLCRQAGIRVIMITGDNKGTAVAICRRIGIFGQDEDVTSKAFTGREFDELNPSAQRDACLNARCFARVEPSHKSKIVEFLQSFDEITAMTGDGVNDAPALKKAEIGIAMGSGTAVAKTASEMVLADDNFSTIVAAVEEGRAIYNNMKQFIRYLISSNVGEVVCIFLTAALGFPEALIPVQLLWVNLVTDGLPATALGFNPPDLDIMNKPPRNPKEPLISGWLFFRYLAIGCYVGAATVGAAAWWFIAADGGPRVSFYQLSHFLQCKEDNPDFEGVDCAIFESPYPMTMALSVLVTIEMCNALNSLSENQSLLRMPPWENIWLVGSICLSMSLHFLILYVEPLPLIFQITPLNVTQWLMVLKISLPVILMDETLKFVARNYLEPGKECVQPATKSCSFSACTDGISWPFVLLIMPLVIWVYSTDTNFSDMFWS

Ryanodine receptor 2 [10] = molecular target: T1, Ryanodine receptor 2; experiment: Modulator activity at wild type RyR2 (unknown origin) expressed in HEK293T co-expressed with R-CEPIA1er assessed as decrease in RyR2-mediated calcium leak at 25 uM in presence of calcium chloride by time-lapse fluorescence analysis; type: cell-based; conditions: filed as modulator
[11] = molecular target: Sarcoplasmic/endoplasmic reticulum calcium ATPase 2 (Mus musculus) (UniProt O55143); experiment: as §1; type: cell-based
[12] = molecular target: Sarcoplasmic/endoplasmic reticulum calcium ATPase 2 (Mus musculus) (UniProt O55143); experiment: Activation of SERCA2a in mouse HL-1 cells assessed as increase in caffeine-induced calcium release at 0.1 to 50 uM incubated for 2 hrs by FLIPR Calcium 6 dye based caffeine assay; type: cell-based; conditions: dose 0.1-50 µM
[13] = molecular target: Sarcoplasmic/endoplasmic reticulum calcium ATPase 2 (Mus musculus) (UniProt O55143); experiment: Activation of SERCA2a in mouse HL-1 cells assessed as increase in caffeine-induced calcium release at 10 uM incubated for 2 hrs by FLIPR Calcium 6 dye based caffeine assay; type: cell-based
Ryanodine receptor 2 [14] = molecular target: T1, Ryanodine receptor 2; experiment: Modulator activity at wild type RyR2 (unknown origin) expressed in HEK293T co-expressed with R-CEPIA1er assessed as decrease in RyR2-mediated calcium leak at 1 mM in presence of calcium chloride by time-lapse fluorescence analysis; type: cell-based; conditions: filed as modulator

SMILES: O=C1CN(/N=C/c2ccc(-c3ccc([N+](=O)[O-])cc3)o2)C(=O)N1
Activity (Ryanodine receptor 2 [10]): Active

SMILES: COc1ccc2c(c1)CN(C)CCS2
Activity [11]: inactive
Papp at 24 h [3]: 1.2 ×10⁻⁶ cm/s
Activity (Ryanodine receptor 2 [5]; filed as modulator): Active
Activity [12]: inactive
Activity [13]: inactive
Activity (Ryanodine receptor 2 [14]): Active

SMILES: COc1ccc2c(c1)CN(Cc1ccc(C(=O)O)cc1)CCS2 [SURLORIAN]
Activity ([11]; filed as activator): Dose-Dependent Effect
EC50 [2]: 34.3 µM
Papp at 24 h [3]: 6.8 ×10⁻⁶ cm/s
Activity (Ryanodine receptor 2 [5]; filed as modulator): Active
Activity [7]: Active
Activity ([9]; filed as activator): Active

SMILES: COc1ccc2c(c1)CN(CCCCN(CCCCC1(O)CC1)CCCCC1(O)CC1)CCS2
Papp at 24 h [3]: 0.6 ×10⁻⁶ cm/s
EC50 (Ryanodine receptor 2 [5]): 2.7 µM
Activity (Ryanodine receptor 2 [10]): Active

SMILES: COc1ccc2c(c1)CN(C(=O)C(=O)O)CCS2 [ALADORIAN]
Activity [11]: inactive
Papp at 24 h [3]: 1 ×10⁻⁶ cm/s
Activity (Ryanodine receptor 2 [5]; filed as modulator): Active
Activity [12]: inactive
Activity (Ryanodine receptor 2 [10]): Active
Activity [13]: inactive

Next, values leading:

Activity [1]: inactive
EC50 [2]: 1.5 µM
Papp at 24 h [3]: 4 ×10⁻⁶ cm/s
Activity [4]: 150%
EC50 (Ryanodine receptor 2 [5]): > 23 µM
Activity [6]: inactive
Activity [7]: Active
Activity [8]: 150%
Activity ([9]; filed as activator): Active
SMILES: COc1ccc(OCCCN(CCCCC2(O)CC2)CCCCC2(O)CC2)cc1

Papp at 24 h [3]: 4 ×10⁻⁶ cm/s
Activity [7]: Active
Activity [9]: inactive
SMILES: COc1ccc(OCCCNCCCCC2(O)CC2)cc1

Papp at 24 h [3]: 3.6 ×10⁻⁶ cm/s
Activity [7]: Active
Activity ([9]; filed as activator): Active
SMILES: COc1ccc(SCCCN(CCCCC2(O)CC2)CCCCC2(O)CC2)cc1

EC50 [2]: > 1000 µM
Papp at 24 h [3]: 3.6 ×10⁻⁶ cm/s
Activity (Ryanodine receptor 2 [5]): inactive
Activity [7]: Active
Activity ([9]; filed as activator): Active
SMILES: COc1ccc2c(c1)CN(CCCCC1(O)CC1)CCS2

Papp at 24 h [3]: 0.8 ×10⁻⁶ cm/s
EC50 (Ryanodine receptor 2 [5]): 8.17 µM
Activity [7]: Active
Activity [9]: inactive
SMILES: COc1ccc2c(c1)CN(CCCCNCCCCC1(O)CC1)CCS2

Papp at 24 h [3]: 6.9 ×10⁻⁶ cm/s
Activity [7]: Active
Activity ([9]; filed as activator): Active
SMILES: COc1ccc(SCCCNCCCCC2(O)CC2)cc1
